Common to all, as to format: functional
Experiment [1] has as its system Allium tuberosum. Kind of experiment: Root growth inhibition of Allium tuberosum seedling at 1 x 10^-3 M after 10 days by agar dilution method relative to control. As to conditions: 240 h, read-out: GI.
In experiment [2] the test system is Brassica rapa subsp. oleifera. Kind of experiment: Root growth inhibition of Brassica rapa subsp. oleifera seedling at 1 x 10^-3 M after 7 days by agar dilution method relative to control. As to conditions: 168 h, read-out: GI. On the technique in general: In agar dilution the substance is mixed into plates at graded concentrations.
Experiment [3] relates to Allium tuberosum. The experiment is described as follows: Root growth promotion of Allium tuberosum seedling at 1 x 10^-3 M after 10 days by agar dilution method relative to control. The note with it: 240 h, read-out: GI.
In experiment [4] the test system is Allium tuberosum. The experiment is described as follows: Root growth inhibition of Allium tuberosum seedling at 1 x 10^-4 M after 10 days by agar dilution method relative to control. The note with it: 240 h, read-out: GI.
Experiment [5] relates to Allium tuberosum. Kind of experiment: Root growth inhibition of Allium tuberosum seedling at 5 x 10^-5 M after 10 days by agar dilution method relative to control. The note with it: 240 h, read-out: GI.
The test system of experiment [6] is Allium tuberosum. The experiment is described as follows: Root growth inhibition of Allium tuberosum seedling at 5 x 10^-4 M after 10 days by agar dilution method relative to control. The note with it: 240 h, read-out: GI.
In experiment [7] the test system is Brassica rapa subsp. oleifera. Kind of experiment: Root growth inhibition of Brassica rapa subsp. oleifera seedling at 5 x 10^-5 M after 7 days by agar dilution method relative to control. As to conditions: 168 h, read-out: GI.
In experiment [8] the test system is Brassica rapa subsp. oleifera. Kind of experiment: Root growth inhibition of Brassica rapa subsp. oleifera seedling at 1 x 10^-4 M after 7 days by agar dilution method relative to control. As to conditions: 168 h, read-out: GI.
Experiment [9] relates to Brassica rapa subsp. oleifera. The experiment is described as follows: Root growth inhibition of Brassica rapa subsp. oleifera seedling at 5 x 10^-4 M after 7 days by agar dilution method relative to control. As to conditions: 168 h, read-out: GI.

As for `CCOC(=O)C(Cc1ccco1)(NC(C)=O)C(=O)Nc1ncc(C)s1` (racemic), the inhibition of growth at 1000 µM in the experiment on Allium tuberosum [1] came out at 42%; in experiment [2] it was 61%.

`CCOC(=O)C(Cc1ccco1)(NC(C)=O)C(=O)OCC`: the inhibition of growth at 1000 µM came out at 4% in the experiment on Allium tuberosum [1] and 26% in experiment [2].

Take `CCOC(=O)C(Cc1ccco1)(NC(C)=O)C(=O)Nc1ncc([N+](=O)[O-])s1` (racemic): the inhibition of growth at 1000 µM with Allium tuberosum [1] was 54%; in [2] it was 94%.

As to `CCOC(=O)C(Cc1ccco1)(NC(C)=O)C(=O)NCc1ccco1` (racemic), the inhibition of growth at 1000 µM stood at 36% in the experiment on Allium tuberosum [3] and 13% in [2].

As to `CCCCNC(=O)C(Cc1ccco1)(NC(C)=O)C(=O)OCC` (racemic), the inhibition of growth at 1000 µM with Allium tuberosum [1] was determined as 4%; in [2], 9%.

With `O=C(O)COc1ccc(Cl)cc1Cl` [2,4-DICHLOROPHENOXYACETIC ACID], the inhibition of growth at 100 µM is 99% with Allium tuberosum [4] and 98% in [8]. The inhibition of growth at 50 µM was 97% with Allium tuberosum [5] and 98% in [7]. Besides, the inhibition of growth at 500 µM came to 100% in the experiment with Allium tuberosum [6] and 99% in experiment [9]. The inhibition of growth at 1000 µM (with Allium tuberosum [1]; in [2]) was 100% in each case.

As to `CCOC(=O)C(Cc1ccco1)(NC(C)=O)C(=O)O` (configuration not stated), the inhibition of growth at 1000 µM came to 47% in the experiment on Allium tuberosum [1] and 66% in experiment [2].

With `CCOC(=O)C(Cc1ccco1)(NC(C)=O)C(=O)Nc1nc2c(Cl)cccc2s1` (racemic), the inhibition of growth at 100 µM is 10% with Allium tuberosum [4] and 50% in experiment [8]. The inhibition of growth at 50 µM in the experiment with Allium tuberosum [5] stood at 10%; in [7], 41%. Further, the results for the inhibition of growth at 500 µM (in the experiment on Allium tuberosum [6]; in experiment [9]) were 50% and 91%, respectively. For the same compound, the inhibition of growth at 1000 µM was found to be 70% with Allium tuberosum [1] and 100% in [2].

Consider `CCOC(=O)C(Cc1ccco1)(NC(C)=O)C(=O)Nc1nccs1` (racemic), for which the figures for the inhibition of growth at 1000 µM (in the experiment with Allium tuberosum [1]; in experiment [2]) were 29% and 53%, respectively.

`CCOC(=O)C(Cc1ccco1)(NC(C)=O)C(=O)Nc1ccc(Cl)cc1` (racemic): the inhibition of growth at 1000 µM in the experiment with Allium tuberosum [3] amounted to 14%; in experiment [2], 49%.

With `CCOC(=O)C(Cc1ccco1)(NC(C)=O)C(=O)Nc1ncc(Br)s1` (racemic), the results for the inhibition of growth at 100 µM (with Allium tuberosum [4]; in experiment [8]) were 50% and 80%, respectively. The inhibition of growth at 50 µM in the experiment with Allium tuberosum [5] came out at 30%; in experiment [7], 21%. The inhibition of growth at 500 µM in the experiment on Allium tuberosum [6] is 53%; in experiment [9], 98%. Also, the results for the inhibition of growth at 1000 µM (with Allium tuberosum [1]; in experiment [2]) were 56% and 100%, respectively.

For `CCOC(=O)C(Cc1ccco1)(NC(C)=O)C(=O)Nc1ccccc1` (racemic), the inhibition of growth at 1000 µM in the experiment with Allium tuberosum [1] was 7%; in experiment [2], 3%.

These data come from ChEMBL document CHEMBL3046487, “Preparation and root growth-modulatory activity of N-substituted 2-acetylamino-2-ethoxycarbonyl-3-(2-furyl)propanamides” (2001).
